“And” between values parts separate entries of the source, which are not always exact repeats. Equal values may be shown once.
Assay: Clinical study on the action of the formulations for weight reduction
Format: in vivo, human
Conditions: body weight per patient; postmenopausal women aged 52-59; 100 mg chrysin daily after lunch for 5 days; each table row is one patient
Description: Eight women between 52 and 59 in age who were hormonally in postmenopause and despite an activity program and targeted nutrition observed no change in weight, took 100 mg of chrysin for 5 days. This dose is under the dosages of any formulations which are offered as food supplements. After a further 5 days, the patients were advised, in order to excite the conversion of peripheral […], to take additionally 100 mg of cholic acid as supplement. Intake proceeded in each case at midday after lunch.

O=c1cc(-c2ccccc2)oc2cc(O)cc(O)c12 [chrysin]
kg after 5 days of 100 mg of chrysin: 73.5 kg and 69.5 kg (2×) and 65 kg and 71 kg and 78 kg and 70.2 kg and 67 kg
